This passage reports IC50 results from patent publication US20240409585A1, “MACROCYCLIC IMMUNOMODULATORS” (priority 2021, published 2024).

Where two headings read alike, the source gives them in different places. Numbered stars: 1 amine (or outer) side, 2 acyl side, 3 side chain; on linkers, the order of the positions; unused ones are H or OH. Bridge positions count the residues as written; N and C are the ends. Square brackets hold non-standard residues; d marks the D form. Peptide text beside a SMILES is read from it. * marks the point of attachment. Bip(4'-NHAc) = CC(=O)Nc1ccc(-c2ccc(C[C@H](N)C(=O)O)cc2)cc1; Phe(3-CF3) = N[C@@H](Cc1cccc(C(F)(F)F)c1)C(=O)O; Ala(morpholin-4-yl) = N[C@@H](CN1CCOCC1)C(=O)O; Phe(4-CONH2) = NC(=O)c1ccc(C[C@H](N)C(=O)O)cc1; Phe(4-COOH) = N[C@@H](Cc1ccc(C(=O)O)cc1)C(=O)O; Bip = N[C@@H](Cc1ccc(-c2ccccc2)cc1)C(=O)O; Abu(3R-NH2) = C[C@@H](N)[C@H](N)C(=O)O; Phe(3-Me) = Cc1cccc(C[C@H](N)C(=O)O)c1; Abu(3S-NH2) = C[C@H](N)[C@H](N)C(=O)O; Propanoyl(3,3,3-F3) = O=C(CC(F)(F)F)*; Val(3-OH) = CC(C)(O)[C@H](N)C(=O)O; X11 = CC(N)[C@H](N[*:1])C(=O)[*:2]; hPhe = N[C@@H](CCc1ccccc1)C(=O)O; Cha = N[C@@H](CC1CCCCC1)C(=O)O; Carboxymethyl = O=C(O)C*; NMeA = CN[C@@H](C)C(=O)O; Dab = NCC[C@H](N)C(=O)O; Dap = NC[C@H](N)C(=O)O; X48 = CN(C)S(=O)(=O)O*

The assay has as its target T1, Alexa fluor-647 labeled human PD-L1-Ig binding to Jurkat cell line over-expressing human PD-1 (Homo sapiens, UniProt Q15116).
T1 construct: expressed in transfected cells; host or cells: Jurkat
Description: Jurkat-PD-1 Cell Binding High-Content Screening Assay (CBA): Method 3 (Alexa fluor-647 labeled PD-L1-Ig). The following applies: Jurkat-PD-1 cells, Alexa fluor-647 labeled PD-L1-Ig 177 nM. In a few lines:
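Readout by high-content imaging of PFA-fixed, Hoechst-stained cells after 1 h with 177 nM (final) Alexa fluor-647 PD-L1-Ig. Compound was added first to hPD-1 Jurkat cells in RPMI plus 10% FCS for 2 h at 37 °C.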

The mark [1] stands for this setting: head μM, read-out: CBA Method 3 μM.

T1 sequence (Q15116 25-288): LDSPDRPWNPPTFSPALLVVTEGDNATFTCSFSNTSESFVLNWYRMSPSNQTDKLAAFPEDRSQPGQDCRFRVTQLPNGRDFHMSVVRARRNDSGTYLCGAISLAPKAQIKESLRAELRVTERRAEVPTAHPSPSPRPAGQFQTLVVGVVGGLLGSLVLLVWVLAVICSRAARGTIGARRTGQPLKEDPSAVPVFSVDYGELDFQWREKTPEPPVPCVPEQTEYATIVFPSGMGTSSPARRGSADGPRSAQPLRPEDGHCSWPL

`CC(=O)Nc1ccc(-c2ccc(C[C@@H]3NC(=O)[C@H](Cc4cccc(C(F)(F)F)c4)NC(=O)[C@H](CC(=O)O)NC(=O)[C@H](Cc4ccc(C(=O)O)cc4)NC(=O)[C@H]([C@@H](C)N)NC(=O)CSC[C@@H](C(=O)N[C@@H](CCN)C(N)=O)NC(=O)[C@H](CCC(=O)O)NC(=O)[C@H](C(C)C)NC(=O)[C@H](CC4CCCCC4)NC(=O)[C@H](CCN)NC(=O)[C@@H](CC(C)C)NC(=O)[C@H](C)N(C)C(=O)[C@H](Cc4ccc(OCC(=O)O)cc4)NC(=O)[C@H](Cc4ccc(-c5ccccc5)cc4)NC3=O)cc2)cc1` [Example 5162] ({CH2CO}-[Abu(3R-NH2)][Phe(4-COOH)]D[Phe(3-CF3)][Bip(4'-NHAc)][Bip]Y(Carboxymethyl)[NMeA][dL][Dab][Cha]VEC[Dab]-NH2; thioether N-14): under “nM, read-out: CBA Method 3”, the IC50 came out at 0.5 nM.
Consider `CC(C)C[C@H]1NC(=O)[C@H](C)N(C)C(=O)[C@H](Cc2ccc(C(=O)O)cc2)NC(=O)[C@H](Cc2ccc(-c3ccccc3)cc2)NC(=O)[C@H](CCc2ccccc2)NC(=O)[C@H](Cc2cccc(C(F)(F)F)c2)NC(=O)[C@H](CC(=O)O)NC(=O)[C@H](Cc2ccc(C(=O)O)cc2)NC(=O)[C@H](CN2CCOCC2)NC(=O)CSC[C@@H](C(=O)N[C@@H](CCN)C(N)=O)NC(=O)[C@H](CNC(=O)CC(F)(F)F)NC(=O)[C@H](C(C)C)NC(=O)[C@H](CC2CCCCC2)NC(=O)[C@H](CCN)NC1=O` [Example 5207] ({CH2CO}-[Ala(morpholin-4-yl)][Phe(4-COOH)]D[Phe(3-CF3)][hPhe][Bip][Phe(4-COOH)][NMeA][dL][Dab][Cha]V[Dap](Propanoyl(3,3,3-F3))C[Dab]-NH2; thioether N-14), for which the IC50 under setting [1] came to 30 nM.
Still for that read-out and setting: under `CC(C)C[C@H]1NC(=O)[C@H](C)N(C)C(=O)[C@H](Cc2ccc(C(N)=O)cc2)NC(=O)[C@H](Cc2ccc(-c3ccccc3)cc2)NC(=O)[C@H](Cc2ccc(OCC(=O)O)cc2)NC(=O)[C@H](Cc2cccc(C(F)(F)F)c2)NC(=O)[C@H](CC(=O)O)NC(=O)[C@H](Cc2ccc(C(=O)O)cc2)NC(=O)[C@H](C(C)N)NC(=O)CSC[C@@H](C(=O)N[C@@H](CCN)C(N)=O)NC(=O)[C@H](CO)NC(=O)[C@H](C(C)(C)O)NC(=O)[C@H](CC2CCCCC2)NC(=O)[C@H](CCN)NC1=O` (stereo partly drawn) [Example 5147] ({CH2CO}-[X11][Phe(4-COOH)]D[Phe(3-CF3)]Y(Carboxymethyl)[Bip][Phe(4-CONH2)][NMeA][dL][Dab][Cha][Val(3-OH)]SC[Dab]-NH2; thioether N-14) stands 10 nM.
For the compound `Cc1cccc(C[C@@H]2NC(=O)[C@H](CC(=O)O)NC(=O)[C@H](Cc3ccc(OCC(=O)O)cc3)NC(=O)[C@H](C)NC(=O)CSC[C@@H](C(=O)N[C@@H](CCN)C(N)=O)NC(=O)[C@H](CCC(=O)O)NC(=O)[C@H](C(C)C)NC(=O)[C@H](CC3CCCCC3)NC(=O)[C@H](CCN)NC(=O)[C@@H](CC(C)C)NC(=O)[C@H](C)N(C)C(=O)[C@H](Cc3ccc(C(=O)O)cc3)NC(=O)[C@H](Cc3ccc(-c4ccccc4)cc3)NC(=O)[C@H](Cc3ccc(C(=O)O)cc3)NC2=O)c1` [Example 5137] ({CH2CO}-AY(Carboxymethyl)D[Phe(3-Me)][Phe(4-COOH)][Bip][Phe(4-COOH)][NMeA][dL][Dab][Cha]VEC[Dab]-NH2; thioether N-14), for the setting “nM, read-out: CBA Method 3”, the IC50 came out at 4.4 nM.
Consider `CC(C)C[C@H]1NC(=O)[C@H](C)N(C)C(=O)[C@H](Cc2ccc(C(N)=O)cc2)NC(=O)[C@H](Cc2ccc(-c3ccccc3)cc2)NC(=O)[C@H](Cc2ccc(C(=O)O)cc2)NC(=O)[C@H](Cc2cccc(C(F)(F)F)c2)NC(=O)[C@H](CC(=O)OS(=O)(=O)N(C)C)NC(=O)[C@H](Cc2ccc(C(=O)O)cc2)NC(=O)[C@H]([C@H](C)N)NC(=O)CSC[C@@H](C(=O)N[C@@H](CCN)C(N)=O)NC(=O)[C@H](CC(N)=O)NC(=O)[C@H](C(C)C)NC(=O)[C@H](CC2CCCCC2)NC(=O)[C@H](CCN)NC1=O` [Example 5113] ({CH2CO}-[Abu(3S-NH2)][Phe(4-COOH)]D(X48)[Phe(3-CF3)][Phe(4-COOH)][Bip][Phe(4-CONH2)][NMeA][dL][Dab][Cha]VNC[Dab]-NH2; thioether N-14), for which the IC50 under setting [1] stood at 150 nM.
